Test results: the supplement of paper PMC4862054

What was measured:
Details in all cases: incubation time: 72 h
BT-549 [1] = assay: drug sensitivity score (DSS), CellTiter-Blue viability (DSS (AUC-based score)); higher = stronger viability inhibition; extreme values may be limits of the assay
Experimental: (§1)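 DSRT with the CellTiter-Blue (resazurin reduction) viability readout, fluorescence 560/590 nm, 72 h incubation. Plates were normalised to DMSO and benzethonium chloride controls. DSS is computed from the area under the fitted dose-response curve (5 or 9 concentrations).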

MDA-MB-231 = assay: as above
Experimental: as §1

MDA-MB-468 [2] = assay: as above
Experimental: as §1

HDQ-P1 = assay: as above
Experimental: as §1

HCC1143 = assay: as above
Experimental: as §1

CAL-120 = assay: as above
Experimental: as §1

CAL-51 = assay: as above
Experimental: as §1

MDA-MB-453 [3] = assay: as above
Experimental: as §1

HCC1937 [4] = assay: as above
Experimental: as §1

BT-474 [5] = assay: as above
Experimental: as §1

MDA-MB-436 [6] = assay: as above
Experimental: as §1

SK-BR-3 = assay: as above
Experimental: as §1

DU-4475 = assay: as above
Experimental: as §1

CAL-148 [7] = assay: as above
Experimental: as §1

HCC1599 [8] = assay: as above
Experimental: as §1

CAL-85-1 [9] = assay: as above
Experimental: as §1

Hs578T = assay: as above
Experimental: as §1

MFM-223 = assay: as above
Experimental: as §1

BT-549 [10] = assay: normalised viability (% of control), CellTiter-Blue; higher = more viable cells (100 = DMSO, 0 = benzethonium chloride kill control)
Experimental: (§2)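 DSRT, CellTiter-Blue viability, 72 h incubation. Signal is normalised to DMSO and benzethonium chloride controls. Value is the normalised response at dose 1.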

MDA-MB-468 [11] = assay: as above
Experimental: as §2

MDA-MB-453 [12] = assay: as above
Experimental: as §2

HCC1937 [13] = assay: as above
Experimental: as §2

BT-474 [14] = assay: as above
Experimental: as §2

MDA-MB-436 [15] = assay: as above
Experimental: as §2

CAL-148 [16] = assay: as above
Experimental: as §2

HCC1599 [17] = assay: as above
Experimental: as §2

CAL-85-1 [18] = assay: as above
Experimental: as §2

SMILES	drug sensitivity score (BT-549 [1])	drug sensitivity score (MDA-MB-231)	drug sensitivity score (MDA-MB-468 [2])	drug sensitivity score (HDQ-P1)	drug sensitivity score (HCC1143)	drug sensitivity score (CAL-120)	drug sensitivity score (CAL-51)	drug sensitivity score (MDA-MB-453 [3])	drug sensitivity score (HCC1937 [4])	drug sensitivity score (BT-474 [5])	drug sensitivity score (MDA-MB-436 [6])	drug sensitivity score (SK-BR-3)	drug sensitivity score (DU-4475)	drug sensitivity score (CAL-148 [7])	drug sensitivity score (HCC1599 [8])	drug sensitivity score (CAL-85-1 [9])	drug sensitivity score (Hs578T)	drug sensitivity score (MFM-223)	normalised viability (BT-549 [10]; 1 nM)	normalised viability (MDA-MB-468 [11]; 1 nM)	other results
O=C(CCBr)N1CCN(C(=O)CCBr)CC1 [Pipobroman]	0	0	0	0	0	0	0	2.49	0	0	0	0	0	0	0	0	0	3.19	83.2%	95%	normalised viability (MDA-MB-453 [12]; 1 nM): 108%; normalised viability (HCC1937 [13]; 1 nM): 87.4%; normalised viability (BT-474 [14]; 1 nM): 98.9%; normalised viability (MDA-MB-436 [15]; 1 nM): 107%; normalised viability (CAL-148 [16]; 1 nM): 115%; normalised viability (HCC1599 [17]; 1 nM): 103%; normalised viability (CAL-85-1 [18]; 1 nM): 96%
c1cc(CN2CCCNCCNCCCNCC2)ccc1CN1CCCNCCNCCCNCC1 [Plerixafor]	0	0	0	0	0	0	0	0	0	0	0	0	0	0	0	0	0	0	–	–	normalised viability (BT-549 [10]; 0.25 nM): 86.8%; normalised viability (MDA-MB-468 [11]; 0.25 nM): 96.5%; normalised viability (MDA-MB-453 [12]; 0.25 nM): 129%; normalised viability (HCC1937 [13]; 0.25 nM): 82.5%; normalised viability (BT-474 [14]; 0.25 nM): 84%; normalised viability (MDA-MB-436 [15]; 0.25 nM): 110%; normalised viability (CAL-148 [16]; 0.25 nM): 87.3%; normalised viability (HCC1599 [17]; 0.25 nM): 107%; normalised viability (CAL-85-1 [18]; 0.25 nM): 84.2%
C[C@]12C=CC(=O)C=C1CC[C@@H]1[C@@H]2[C@@H](O)C[C@@]2(C)[C@H]1CC[C@]2(O)C(=O)CO [Prednisolone]	0	0	0	0	0	0	0	4.2	0	0	0	0	0	0	0	0	0	0	101%	109%	normalised viability (MDA-MB-453 [12]; 1 nM): 100%; normalised viability (HCC1937 [13]; 1 nM): 88.8%; normalised viability (BT-474 [14]; 1 nM): 117%; normalised viability (MDA-MB-436 [15]; 1 nM): 108%; normalised viability (CAL-148 [16]; 1 nM): 111%; normalised viability (HCC1599 [17]; 1 nM): 118%; normalised viability (CAL-85-1 [18]; 1 nM): 97.7%
CC[C@@]1(O)C(=O)OCc2c1cc1n(c2=O)Cc2cc3c(CN(C)C)c(O)ccc3nc2-1 [Topotecan]	4.7	3.58	11.6	0.903	5.56	8.72	5.2	3.26	13.2	0	6.23	11.3	11.1	11.5	3.96	3.4	0	0	–	–	normalised viability (BT-549 [10]; 0.1 nM): 96.1%; normalised viability (MDA-MB-468 [11]; 0.1 nM): 107%; normalised viability (MDA-MB-453 [12]; 0.1 nM): 110%; normalised viability (HCC1937 [13]; 0.1 nM): 81.5%; normalised viability (BT-474 [14]; 0.1 nM): 111%; normalised viability (MDA-MB-436 [15]; 0.1 nM): 99.9%; normalised viability (CAL-148 [16]; 0.1 nM): 103%; normalised viability (HCC1599 [17]; 0.1 nM): 90.8%; normalised viability (CAL-85-1 [18]; 0.1 nM): 85.5%
